Tests used:
Format in all cases: cell-based
[1] = tested on: Candida famata wild type and regulatory mutants able to overproduce riboflavin on iron-rich medium; assay: Sensitivity after electroporation to 3CdSO4.8H20, Burkholder medium with 0.3 M sucrose (Table 20); parameters: key: +++: strong growth; ++: weak growth; +: very weak growth; —: absence of growth
Description: (§1) Next, the toxicity of CdSO4 (0–25 μM) to regulatory mutants 2-5 and 4-48 and the C. famata wild strain was studied in the medium with sucrose (Table 20).
(§2) It was shown that all three strains appeared to be very sensitive to Cd^+2 ions without any differences between regulatory mutants and the wild-type strain.

[2] = tested on: Candida famata wild type and regulatory mutants able to overproduce riboflavin on iron-rich medium; assay: as above; parameters: key: +++: strong growth; ++: weak growth; —: absence of growth
Description: as §1, §2

[3] = tested on: Candida famata regulatory mutants unable to overproduce riboflavin; assay: Sensitivity to monofluoroacetate, Burkholder medium with 0.5% glucose (Table 8)
From the text: (§3) In further experiments, the influence of the aconitase inhibitor, 2-monofluoroacetate (MFA), on the growth of C.famata regulatory mutants unable to overproduce riboflavin was studied in media with glucose (0.5%) or glycerol (0.5%) as the carbon sources.

[4] = tested on: Candida famata regulatory mutants unable to overproduce riboflavin; assay: Sensitivity to monofluoroacetate, Burkholder medium with 0.5% glycerol (Table 7); conditions: MFA 0.2–0.4%
From the text: as §3

**Q.** Which growth ([1]; #2-5, 15 μM) does the source give for `O.O.O.O.O.O.O.O.O=S(=O)([O-])[O-].O=S(=O)([O-])[O-].O=S(=O)([O-])[O-].[Cd+2].[Cd+2].[Cd+2]` [CdSO4×8H2O] here?
**A.** +

**Q.** And the growth ([1]; #2-5, 20 μM)?
**A.** +

**Q.** And the growth ([1]; #4-48, 15 μM)?
**A.** +

**Q.** What about the growth ([1]; #4-48, 20 μM) of the same molecule?
**A.** +

**Q.** What about the growth ([1]; VKM Y-9, 15 μM) of the same molecule?
**A.** +

**Q.** And the growth ([1]; VKM Y-9, 20 μM)?
**A.** +

**Q.** What about the growth ([2]; #2-5, 5 μM) of the same molecule?
**A.** ++

**Q.** And the growth ([2]; #2-5, 10 μM)?
**A.** ++

**Q.** And the growth ([2]; #2-5, 25 μM)?
**A.** —

**Q.** What about the growth ([2]; #4-48, 5 μM) of the same molecule?
**A.** ++

**Q.** What about the growth ([2]; #4-48, 10 μM) of the same molecule?
**A.** ++

**Q.** And the growth ([2]; #4-48, 25 μM)?
**A.** —

**Q.** What about the growth ([2]; VKM Y-9, 5 μM) of the same molecule?
**A.** +++

**Q.** And the growth ([2]; VKM Y-9, 10 μM)?
**A.** ++

**Q.** And the growth ([2]; VKM Y-9, 25 μM)?
**A.** —

**Q.** Which “effect on growth of most regulatory mutants” value [3] does the source give for `O=C(O)CF` [MFA, 2-monofluoroacetate] here?
**A.** did not inhibit growth

**Q.** And the “effect on growth of wild type VKM Y-9 and leu2 auxotroph L20105” value [4]?
**A.** not inhibited at all

From patent US7009045B2 (priority 2000, dated 2006)
